Results published in ChEMBL document CHEMBL1156817, “Fructose-1,6-bisphosphatase Inhibitors. 2. Design, synthesis, and structure-activity relationship of a series of phosphonic acid containing benzimidazoles that function as 5'-adenosinemonophosphate (AMP) mimics” (J Med Chem, 2010).

Target: T1, Fructose-1,6-bisphosphatase 1 (Homo sapiens, UniProt P09467)
T1 sequence (P09467 whole entry): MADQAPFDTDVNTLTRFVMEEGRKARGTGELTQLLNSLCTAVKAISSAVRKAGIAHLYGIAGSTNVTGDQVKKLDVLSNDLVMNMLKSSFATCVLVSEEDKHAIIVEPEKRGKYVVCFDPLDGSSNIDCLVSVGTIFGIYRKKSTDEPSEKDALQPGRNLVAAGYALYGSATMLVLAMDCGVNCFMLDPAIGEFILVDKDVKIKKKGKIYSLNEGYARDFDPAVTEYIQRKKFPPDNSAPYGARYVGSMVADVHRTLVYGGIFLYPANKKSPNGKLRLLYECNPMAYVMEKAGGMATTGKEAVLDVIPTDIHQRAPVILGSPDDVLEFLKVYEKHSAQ
Test: Inhibition of human liver FBPase 1
Conditions: not given

Structure (SMILES)	IC50 [nM]
Nc1cccc2c1nc(-c1ccc(P(=O)(O)O)o1)n2CC1CC1	800
Nc1cccc2c1nc(-c1ccc(P(=O)(O)O)o1)n2Cc1ccc(C(F)(F)F)cc1	7000
CCCc1ccc2c(nc(-c3ccc(P(=O)(O)O)o3)n2CC(C)C)c1N	3000
CC(C)Cn1c(-c2ccc(P(=O)(O)O)o2)nc2c(N)c(F)cc(Cl)c21	100
CC(C)Cn1c(-c2ccc(P(=O)(O)O)o2)nc2c(N)c(F)cc(Br)c21	130
CCC(CC)Cn1c(-c2ccc(P(=O)(O)O)o2)nc2c(N)c(F)ccc21	150
CCC(CC)n1c(-c2ccc(P(=O)(O)O)o2)nc2c(N)c(F)ccc21	850
CC(C)Cn1c(-c2ccc(P(=O)(O)O)o2)nc2c(N)ccc(Cl)c21	900
CC(C)Cn1c(-c2ccc(P(=O)(O)O)o2)nc2c(N)c(F)cc(CCCO)c21	80
Nc1cccc2c1nc(-c1ccc(P(=O)(O)O)o1)n2Cc1cccc(O)c1	1850
CC(C)Cn1c(-c2ccc(P(=O)(O)O)o2)nc2c(N)c(F)cc(C3CC3)c21	60
CC(C)Cn1c(-c2ccc(P(=O)(O)O)o2)nc2c(N)c(Cl)cc(Cl)c21	450
Nc1cccc2c1nc(-c1ccc(P(=O)(O)O)o1)n2CC1CCCCC1	2500
CC(C)Cn1c(-c2ccc(P(=O)(O)O)o2)nc2c(N)c(F)cc(-c3ccc(Cl)cc3)c21	90
Nc1cccc2c1nc(-c1ccc(P(=O)(O)O)o1)n2Cc1ccccc1	5000
C=Cc1cc(F)c(N)c2nc(-c3ccc(P(=O)(O)O)o3)n(CC(C)C)c12	280
CC(C)Cn1c(-c2ccc(P(=O)(O)O)o2)nc2c(N)c(F)cc(CCCN(C)C)c21	55
Nc1cccc2c1nc(-c1ccc(P(=O)(O)O)o1)n2Cc1ccc(-c2ccccc2)cc1	2500
Cn1c(-c2ccc(P(=O)(O)O)o2)nc2c(N)cccc21	6000

Target: T2, Fructose-1,6-bisphosphatase 1 (Rattus norvegicus, UniProt P19112)
T2 sequence (P19112 whole entry): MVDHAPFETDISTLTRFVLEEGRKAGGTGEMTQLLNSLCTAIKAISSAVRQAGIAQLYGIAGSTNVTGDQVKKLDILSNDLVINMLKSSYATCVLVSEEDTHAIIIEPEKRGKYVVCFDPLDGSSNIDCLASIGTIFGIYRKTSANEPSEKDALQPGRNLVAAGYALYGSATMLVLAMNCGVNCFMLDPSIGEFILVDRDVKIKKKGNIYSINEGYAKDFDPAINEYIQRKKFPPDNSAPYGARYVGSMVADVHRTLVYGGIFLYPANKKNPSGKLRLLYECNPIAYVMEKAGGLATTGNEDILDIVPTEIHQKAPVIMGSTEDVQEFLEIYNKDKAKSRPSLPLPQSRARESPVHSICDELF
Test: Inhibition of rat liver FBPase 1
Conditions: not given

Structure (SMILES)	IC50 [nM]
Nc1cccc2c1nc(-c1ccc(P(=O)(O)O)o1)n2CC1CC1	20000
Nc1cccc2c1nc(-c1ccc(P(=O)(O)O)o1)n2Cc1ccc(C(F)(F)F)cc1	20000
CCCc1ccc2c(nc(-c3ccc(P(=O)(O)O)o3)n2CC(C)C)c1N	20000
CC(C)Cn1c(-c2ccc(P(=O)(O)O)o2)nc2c(N)c(F)cc(Cl)c21	2000
CC(C)Cn1c(-c2ccc(P(=O)(O)O)o2)nc2c(N)c(F)cc(Br)c21	2090
Nc1c(F)ccc2c1nc(-c1ccc(P(=O)(O)O)o1)n2CC1CC1	2180
CCC(CC)Cn1c(-c2ccc(P(=O)(O)O)o2)nc2c(N)c(F)ccc21	850
CCC(CC)n1c(-c2ccc(P(=O)(O)O)o2)nc2c(N)c(F)ccc21	2500
CC(C)Cn1c(-c2ccc(P(=O)(O)O)o2)nc2c(N)ccc(Cl)c21	2000
CC(C)Cn1c(-c2ccc(P(=O)(O)O)o2)nc2c(N)c(F)cc(CCCO)c21	450
Nc1cccc2c1nc(-c1ccc(P(=O)(O)O)o1)n2Cc1cccc(O)c1	20000
CC(C)Cn1c(-c2ccc(P(=O)(O)O)o2)nc2c(N)c(F)cc(C3CC3)c21	350
CC(C)Cn1c(-c2ccc(P(=O)(O)O)o2)nc2c(N)c(Cl)cc(Cl)c21	2000
Nc1cccc2c1nc(-c1ccc(P(=O)(O)O)o1)n2CC1CCCCC1	20000
CC(C)Cn1c(-c2ccc(P(=O)(O)O)o2)nc2c(N)c(F)cc(-c3ccc(Cl)cc3)c21	2000
Nc1cccc2c1nc(-c1ccc(P(=O)(O)O)o1)n2Cc1ccccc1	20000
C=Cc1cc(F)c(N)c2nc(-c3ccc(P(=O)(O)O)o3)n(CC(C)C)c12	900
CC(C)Cn1c(-c2ccc(P(=O)(O)O)o2)nc2c(N)c(F)cc(CCCN(C)C)c21	400
Nc1cccc2c1nc(-c1ccc(P(=O)(O)O)o1)n2Cc1ccc(-c2ccccc2)cc1	20000
Cn1c(-c2ccc(P(=O)(O)O)o2)nc2c(N)cccc21	20000

Test system: Rattus norvegicus
Test: Reduction of blood glucose level in 18 hrs fasted normal Sprague-Dawley rat at 10 mg/kg, iv after 1 hr interval
Type: functional
Design: scale not given: the % may be the effect or the level left
Conditions: not given

Structure (SMILES)	Activity [%]
CC(C)Cn1c(-c2ccc(P(=O)(O)O)o2)nc2c(N)c(F)cc(CCCO)c21	63
CC(C)Cn1c(-c2ccc(P(=O)(O)O)o2)nc2c(N)c(F)cc(C3CC3)c21	64
CC(C)Cn1c(-c2ccc(P(=O)(O)O)o2)nc2c(N)c(F)cc(CCCN(C)C)c21	44

Test system: not listed separately
Test: Oral bioavailability in 18 hrs fasted normal Sprague-Dawley rat up to 100 mg/kg by urinary excretion assay
Type: ADME, organism-based
Conditions: urine

Structure (SMILES)	bioavailability [%]
CCOC(=O)OCOP(=O)(OCOC(=O)OCC)c1ccc(-c2nc3c(N)c(F)cc(CC)c3n2CC(C)C)o1	2
CCc1cc(F)c(N)c2nc(-c3ccc(P(=O)(Oc4ccc(C(=O)OC(C)(C)C)cc4)Oc4ccc(C(=O)OC(C)(C)C)cc4)o3)n(CC(C)C)c12	2
CCOC(=O)[C@H](C)NP(=O)(N[C@@H](C)C(=O)OCC)c1ccc(-c2nc3c(N)c(F)cc(CC)c3n2CC(C)C)o1	5
CCc1cc(F)c(N)c2nc(-c3ccc(P(=O)(OCC(=O)OC(C)(C)C)OCC(=O)OC(C)(C)C)o3)n(CC(C)C)c12	2
CCc1cc(F)c(N)c2nc(-c3ccc(P(=O)(OCCSC(C)=O)OCCSC(C)=O)o3)n(CC(C)C)c12	2
CCc1cc(F)c(N)c2nc(-c3ccc(P(=O)(OCC(=O)OC(C)(C)C)OCC(=O)OC(C)(C)C)o3)n(CC(C)C)c12.Cl	2

Test system: Hepatocyte
Test: cells
Conditions: Rattus norvegicus
Description: Inhibition of glucose production in rat primary hepatocytes

Structure (SMILES)	IC50 [µM]
Nc1cccc2c1nc(-c1ccc(P(=O)(O)O)o1)n2CC1CC1	100
Nc1cccc2c1nc(-c1ccc(P(=O)(O)O)o1)n2Cc1ccc(C(F)(F)F)cc1	100
CCCc1ccc2c(nc(-c3ccc(P(=O)(O)O)o3)n2CC(C)C)c1N	50
CC(C)Cn1c(-c2ccc(P(=O)(O)O)o2)nc2c(N)c(F)cc(Br)c21	5
Nc1c(F)ccc2c1nc(-c1ccc(P(=O)(O)O)o1)n2CC1CC1	3.3
CCC(CC)Cn1c(-c2ccc(P(=O)(O)O)o2)nc2c(N)c(F)ccc21	5
CCC(CC)n1c(-c2ccc(P(=O)(O)O)o2)nc2c(N)c(F)ccc21	9.5
CC(C)Cn1c(-c2ccc(P(=O)(O)O)o2)nc2c(N)ccc(Cl)c21	24
CC(C)Cn1c(-c2ccc(P(=O)(O)O)o2)nc2c(N)c(F)cc(CCCO)c21	1
Nc1cccc2c1nc(-c1ccc(P(=O)(O)O)o1)n2Cc1cccc(O)c1	100
CC(C)Cn1c(-c2ccc(P(=O)(O)O)o2)nc2c(N)c(F)cc(C3CC3)c21	1.5
CC(C)Cn1c(-c2ccc(P(=O)(O)O)o2)nc2c(N)c(Cl)cc(Cl)c21	14
Nc1cccc2c1nc(-c1ccc(P(=O)(O)O)o1)n2CC1CCCCC1	100
CC(C)Cn1c(-c2ccc(P(=O)(O)O)o2)nc2c(N)c(F)cc(-c3ccc(Cl)cc3)c21	> 25
Nc1cccc2c1nc(-c1ccc(P(=O)(O)O)o1)n2Cc1ccccc1	100
C=Cc1cc(F)c(N)c2nc(-c3ccc(P(=O)(O)O)o3)n(CC(C)C)c12	25
Nc1cccc2c1nc(-c1ccc(P(=O)(O)O)o1)n2Cc1ccc(-c2ccccc2)cc1	100
Cn1c(-c2ccc(P(=O)(O)O)o2)nc2c(N)cccc21	100
